Measured values reported in the supplement of paper PMC10307832.

Assays:
Assay in all cases: relative viability (nuclei count vs DMSO), 5 days (fraction); higher = more cells survive
AZD5582 + Foretinib = compound: C[C@@H](C(=O)N[C@@H](C1CCCCC1)C(=O)N2CCC[C@H]2C(=O)N[C@@H]3[C@@H](CC4=CC=CC=C34)OCC#CC#CCO[C@@H]5CC6=CC=CC=C6[C@@H]5NC(=O)[C@@H]7CCCN7C(=O)[C@H](C8CCCCC8)NC(=O)[C@H](C)NC)NC [AZD5582] + COc1cc2c(Oc3ccc(NC(=O)C4(C(=O)Nc5ccc(F)cc5)CC4)cc3F)ccnc2cc1OCCCN1CCOCC1 [Foretinib] (partner 0.25 µM)
Procedure, shortened: (§1)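 Lung cancer cell lines, seeded in 1536-well plates, were treated the following day by pin tool with a single drug or with five library-drug doses (not always all listed) in √10 steps on top of a fixed anchor-drug dose. Cells were fixed and nuclei stained in one step after 5 days, and nuclei were counted. Relative viability is the nuclei count for treated wells divided by that for vehicle wells, reported as medians of duplicate plates.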

AZD5582 + Crizotinib = compound: C[C@@H](C(=O)N[C@@H](C1CCCCC1)C(=O)N2CCC[C@H]2C(=O)N[C@@H]3[C@@H](CC4=CC=CC=C34)OCC#CC#CCO[C@@H]5CC6=CC=CC=C6[C@@H]5NC(=O)[C@@H]7CCCN7C(=O)[C@H](C8CCCCC8)NC(=O)[C@H](C)NC)NC [AZD5582] + C[C@@H](Oc1cc(-c2cnn(C3CCNCC3)c2)cnc1N)c1c(Cl)ccc(F)c1Cl [Crizotinib] (partner 1 µM)
Procedure, shortened: as §1

[1] = compound: Cn1nnc2c(C(N)=O)ncn2c1=O [Temozolomide] + CC(=O)Nc1cccc(-n2c(=O)n(C3CC3)c(=O)c3c(Nc4ccc(I)cc4F)n(C)c(=O)c(C)c32)c1 [Trametinib] (partner 0.02 µM)
Procedure, shortened: as §1

[2] = compound: Cn1nnc2c(C(N)=O)ncn2c1=O [Temozolomide] + CS(=O)(=O)N1CCN(Cc2cc3nc(-c4cccc5[nH]ncc45)nc(N4CCOCC4)c3s2)CC1 [Pictilisib] (partner 1 µM)
Procedure, shortened: as §1

Row | Cell Line | relative viability (AZD5582 + Foretinib; first compound 0.001581 µM) | relative viability (AZD5582 + Foretinib; first compound 0.005 µM) | relative viability (AZD5582 + Foretinib; first compound 0.01581 µM) | relative viability (AZD5582 + Foretinib; first compound 0.05 µM) | relative viability (AZD5582 + Crizotinib; first compound 0.001581 µM) | relative viability (AZD5582 + Crizotinib; first compound 0.005 µM) | relative viability (AZD5582 + Crizotinib; first compound 0.01581 µM) | relative viability (AZD5582 + Crizotinib; first compound 0.05 µM) | relative viability ([1]; first compound 0.2 µM) | relative viability ([1]; first compound 0.6325 µM) | relative viability ([1]; first compound 2 µM) | relative viability ([1]; first compound 6.325 µM) | relative viability ([1]; first compound 20 µM) | relative viability ([2]; first compound 0.2 µM) | relative viability ([2]; first compound 0.6325 µM) | relative viability ([2]; first compound 2 µM) | relative viability ([2]; first compound 6.325 µM) | relative viability ([2]; first compound 20 µM)
1 | NCI-H1993 | 0.792 | 0.786 | 0.854 | 0.715 | 0.824 | 0.826 | 0.819 | 0.915 | 0.429 | 0.61 | 0.473 | 0.455 | 0.552 | 0.853 | 0.819 | 0.871 | 0.826 | 0.834
2 | BEN | 0.634 | 0.751 | 0.627 | 0.415 | 0.658 | 0.784 | 0.979 | 0.848 | 0.813 | 1.12 | 1.1 | 1 | 0.853 | 0.467 | 0.629 | 0.657 | 0.552 | 0.484
3 | NCI-H2009 | 1.22 | 1.28 | 1.19 | 1.29 | 1.01 | 1.03 | 0.993 | 1.02 | 0.279 | 0.273 | 0.389 | 0.268 | 0.265 | 0.969 | 0.891 | 0.893 | 0.638 | 0.87
4 | NCI-H2228 | 0.843 | 1 | 0.788 | 0.472 | 0.623 | 0.521 | 0.702 | 0.479 | 0.286 | 0.617 | 0.432 | 0.459 | 0.537 | 0.354 | 0.36 | 0.227 | 0.234 | 0.47
5 | PC-14 | 0.903 | 1.06 | 0.938 | 0.945 | 0.787 | 0.835 | 0.909 | 0.742 | 0.96 | 0.766 | 0.758 | 0.813 | 0.585 | 0.834 | 0.791 | 0.737 | 0.614 | 0.0773
6 | EKVX | 0.691 | 0.932 | 0.553 | 0.612 | 0.713 | 0.9 | 0.753 | 0.96 |  | 0.318 | 0.286 | 0.338 | 0.247 | 0.23 | 0.38 | 0.391 | 0.379 | 0.273
